Assays:
Format in all cases: in vivo
Soybeans = test: Greenhouse multispecies herbicide screen with/without P. mendocina enzyme; settings: two weeks after treatment
Source text: (§1) Several plant species including weeds and crops are used in these experiments.
(§2) A number of herbicides from various chemical classes were compared in a multispecies screen for percent chlorosis, necrosis and vigor reduction both with and without application of the enzyme from Pseudomonas mendocina ATCC 53552 described earlier. The herbicides were applied to various plants at the manufacturers recommended doses and at 10% and 40% of the recommended dose. Two different enzyme concentrations were used: 0.5 mg/ml (HE) and 0.05 mg/ml (LE) and applied at the rate of 40 gallons/acre. All spraying solutions were at pH 10 and contained 100 mm sodium phosphate each. Ratings were done at 6 and 12 days after the treatment. All the experiments were carried out in a greenhouse.
(§3) Chlorosis--figures represent percent of plants showing chlorosis.
(§4) Necrosis--figures represent percent of plants showing necrosis.
(§5) Vigor--figures represent percent of plants showing decreased vigor.
(§6) Phytotoxicity--figures represent the average percent of chlorosis, necrosis, and vigor for a given sample.
(§7) The method of Example 1 was used except that the enzyme was applied 2 hours prior to administering the agricultural chemical with the following results. Ratings were done two weeks after treatment

Turnip = test: as above; settings: for CHL (chlorosis) / NEC (necrosis) / PHY (phytotoxicity) / VIG (vigor) / % PHY (phytotoxicity): two weeks after treatment
Source text: as §1, §2, §3, §4, §5, §6, §7

various plants = test: Greenhouse multispecies herbicide screen, statements on all tested plants
Source text: as §1
as §2, with “Ratings were done at 6 and 12 days after the treatment.” left out

[1] = Example 8: BASAGRAN 10% dose, High Enzyme applied 2 hours prior
[2] = Example 8: BASAGRAN 10% dose, Low Enzyme applied 2 hours prior
[3] = Example 8: BASAGRAN 10% dose, No Enzyme

SMILES: CN(C)C(=O)Nc1ccc(Cl)c(Cl)c1 [KARMEX, 3-(3,4-dichlorophenyl)-1,1-dimethylurea]
- CHL (chlorosis) (Soybeans; KARMEX 10% dose, High Enzyme): 0%
- NEC (necrosis) (Soybeans; KARMEX 10% dose, High Enzyme): 0%
- PHY (phytotoxicity) (Soybeans; KARMEX 10% dose, High Enzyme): 0%
- VIG (vigor) (Soybeans; KARMEX 10% dose, High Enzyme): 0%
- CHL (chlorosis) (Soybeans; KARMEX 10% dose, Low Enzyme): 0%
- NEC (necrosis) (Soybeans; KARMEX 10% dose, Low Enzyme): 0%
- PHY (phytotoxicity) (Soybeans; KARMEX 10% dose, Low Enzyme): 0%
- VIG (vigor) (Soybeans; KARMEX 10% dose, Low Enzyme): 0%
- CHL (chlorosis) (Soybeans; KARMEX 10% dose, No Enzyme): 0%
- NEC (necrosis) (Soybeans; KARMEX 10% dose, No Enzyme): 0%
- PHY (phytotoxicity) (Soybeans; KARMEX 10% dose, No Enzyme): 0%
- VIG (vigor) (Soybeans; KARMEX 10% dose, No Enzyme): 0%
- CHL (chlorosis) (Soybeans; KARMEX 40% dose, High Enzyme): 0%
- NEC (necrosis) (Soybeans; KARMEX 40% dose, High Enzyme): 13%
- PHY (phytotoxicity) (Soybeans; KARMEX 40% dose, High Enzyme): 8%
- VIG (vigor) (Soybeans; KARMEX 40% dose, High Enzyme): 10%
- CHL (chlorosis) (Soybeans; KARMEX 40% dose, Low Enzyme): 0%
- NEC (necrosis) (Soybeans; KARMEX 40% dose, Low Enzyme): 15%
- PHY (phytotoxicity) (Soybeans; KARMEX 40% dose, Low Enzyme): 6%
- VIG (vigor) (Soybeans; KARMEX 40% dose, Low Enzyme): 5%
- CHL (chlorosis) (Soybeans; KARMEX 40% dose, No Enzyme): 0%
- NEC (necrosis) (Soybeans; KARMEX 40% dose, No Enzyme): 10%
- PHY (phytotoxicity) (Soybeans; KARMEX 40% dose, No Enzyme): 3%
- VIG (vigor) (Soybeans; KARMEX 40% dose, No Enzyme): 0%
- CHL (chlorosis) (Turnip; KARMEX 10% dose, High Enzyme): 18%
- NEC (necrosis) (Turnip; KARMEX 10% dose, High Enzyme): 15%
- PHY (phytotoxicity) (Turnip; KARMEX 10% dose, High Enzyme): 11%
- VIG (vigor) (Turnip; KARMEX 10% dose, High Enzyme): 0%
- CHL (chlorosis) (Turnip; KARMEX 10% dose, Low Enzyme): 18%
- NEC (necrosis) (Turnip; KARMEX 10% dose, Low Enzyme): 15%
- PHY (phytotoxicity) (Turnip; KARMEX 10% dose, Low Enzyme): 11%
- VIG (vigor) (Turnip; KARMEX 10% dose, Low Enzyme): 5%
- CHL (chlorosis) (Turnip; KARMEX 10% dose, No Enzyme): 28%
- NEC (necrosis) (Turnip; KARMEX 10% dose, No Enzyme): 10%
- PHY (phytotoxicity) (Turnip; KARMEX 10% dose, No Enzyme): 13%
- VIG (vigor) (Turnip; KARMEX 10% dose, No Enzyme): 0%
- CHL (chlorosis) (Turnip; KARMEX 40% dose, High Enzyme): 35%
- NEC (necrosis) (Turnip; KARMEX 40% dose, High Enzyme): 25%
- PHY (phytotoxicity) (Turnip; KARMEX 40% dose, High Enzyme): 36%
- VIG (vigor) (Turnip; KARMEX 40% dose, High Enzyme): 50%
- CHL (chlorosis) (Turnip; KARMEX 40% dose, Low Enzyme): 30%
- NEC (necrosis) (Turnip; KARMEX 40% dose, Low Enzyme): 50%
- PHY (phytotoxicity) (Turnip; KARMEX 40% dose, Low Enzyme): 41%
- VIG (vigor) (Turnip; KARMEX 40% dose, Low Enzyme): 43%
- CHL (chlorosis) (Turnip; KARMEX 40% dose, No Enzyme): 25%
- NEC (necrosis) (Turnip; KARMEX 40% dose, No Enzyme): 38%
- PHY (phytotoxicity) (Turnip; KARMEX 40% dose, No Enzyme): 33%
- VIG (vigor) (Turnip; KARMEX 40% dose, No Enzyme): 37%
- Phytotoxicity with enzyme (Turnip; KARMEX at 40% of the recommended dosage, with enzyme, sprayed on turnips): increased phytotoxicity
- Phytotoxicity (various plants; KARMEX under the test conditions): low

SMILES: CC(C)N1C(=O)c2ccccc2NS1(=O)=O [BASAGRAN, 3-(1-methylethyl)-1H-,2,1,3-benzothiadiazin-4(3H)-one 2,2-dioxide]
- CHL (chlorosis) (Soybeans; BASAGRAN 10% dose, High Enzyme): 18%
- NEC (necrosis) (Soybeans; BASAGRAN 10% dose, High Enzyme): 38%
- PHY (phytotoxicity) (Soybeans; BASAGRAN 10% dose, High Enzyme): 43%
- VIG (vigor) (Soybeans; BASAGRAN 10% dose, High Enzyme): 73%
- CHL (chlorosis) (Soybeans; BASAGRAN 10% dose, Low Enzyme): 18%
- NEC (necrosis) (Soybeans; BASAGRAN 10% dose, Low Enzyme): 43%
- PHY (phytotoxicity) (Soybeans; BASAGRAN 10% dose, Low Enzyme): 37%
- VIG (vigor) (Soybeans; BASAGRAN 10% dose, Low Enzyme): 50%
- CHL (chlorosis) (Soybeans; BASAGRAN 10% dose, No Enzyme): 5%
- NEC (necrosis) (Soybeans; BASAGRAN 10% dose, No Enzyme): 5%
- PHY (phytotoxicity) (Soybeans; BASAGRAN 10% dose, No Enzyme): 8%
- VIG (vigor) (Soybeans; BASAGRAN 10% dose, No Enzyme): 13%
- % PHY (phytotoxicity) (Soybeans; [1]): 2%
- CHL (chlorosis) (Soybeans; [1]): 0%
- NEC (necrosis) (Soybeans; [1]): 5%
- VIG (vigor) (Soybeans; [1]): 0%
- % PHY (phytotoxicity) (Soybeans; [2]): 48%
- CHL (chlorosis) (Soybeans; [2]): 48%
- NEC (necrosis) (Soybeans; [2]): 48%
- VIG (vigor) (Soybeans; [2]): 48%
- % PHY (phytotoxicity) (Soybeans; [3]): 25%
- CHL (chlorosis) (Soybeans; [3]): 25%
- NEC (necrosis) (Soybeans; [3]): 25%
- VIG (vigor) (Soybeans; [3]): 25%
- CHL (chlorosis) (Turnip; BASAGRAN 10% dose, High Enzyme): 38%
- NEC (necrosis) (Turnip; BASAGRAN 10% dose, High Enzyme): 50%
- PHY (phytotoxicity) (Turnip; BASAGRAN 10% dose, High Enzyme): 50%
- VIG (vigor) (Turnip; BASAGRAN 10% dose, High Enzyme): 63%
- CHL (chlorosis) (Turnip; BASAGRAN 10% dose, Low Enzyme): 38%
- NEC (necrosis) (Turnip; BASAGRAN 10% dose, Low Enzyme): 63%
- PHY (phytotoxicity) (Turnip; BASAGRAN 10% dose, Low Enzyme): 59%
- VIG (vigor) (Turnip; BASAGRAN 10% dose, Low Enzyme): 75%
- CHL (chlorosis) (Turnip; BASAGRAN 10% dose, No Enzyme): 25%
- NEC (necrosis) (Turnip; BASAGRAN 10% dose, No Enzyme): 25%
- PHY (phytotoxicity) (Turnip; BASAGRAN 10% dose, No Enzyme): 29%
- VIG (vigor) (Turnip; BASAGRAN 10% dose, No Enzyme): 38%
- % PHY (phytotoxicity) (Turnip; [1]): 41%
- CHL (chlorosis) (Turnip; [1]): 30%
- NEC (necrosis) (Turnip; [1]): 50%
- VIG (vigor) (Turnip; [1]): 43%
- % PHY (phytotoxicity) (Turnip; [2]): 78%
- CHL (chlorosis) (Turnip; [2]): 63%
- NEC (necrosis) (Turnip; [2]): 85%
- VIG (vigor) (Turnip; [2]): 85%
- % PHY (phytotoxicity) (Turnip; [3]): 48%
- CHL (chlorosis) (Turnip; [3]): 25%
- NEC (necrosis) (Turnip; [3]): 63%
- VIG (vigor) (Turnip; [3]): 55%
- Plants killed (various plants; BASAGRAN applied at 40% of the recommended dosage, two weeks after treatment): completely killed

Reference: patent publication US5545547A, “Enzymes as agricultural chemical adjuvants” (priority 1992, dated 1996)
